Measured values published in patent US7875287B2, “Tc-labeled arylpiperazine derivatives for imaging serotonin receptor” (Korea Atomic Energy Research Institute, priority 2005, dated 2011).

What was measured:
[1] = Static image scan of rabbits after intravenous injection; type: in vivo, male New Zealand white rabbits; conditions: rabbit, image 5 min after injection
Experimental: Static image of male New Zealand white rabbits scanned at 5 and 10 min.
At an image of 5 min. after the injection, high activity was found in the liver. A trace amount of ^99mTc-8-[3-({2-[4-(2-methoxy-phenyl)-piperazin-1-yl]-ethyl}-pyridin-2-yl-amino)-propyl]-[1,2,5,8]dithiadiazecan-6-one (25) seemed to be remained in the brain.

[2] = Paper electrophoresis in 0.1 M phosphate buffer (pH7.4); type: physicochemical; conditions: aqueous solution, 0.1 M phosphate buffer pH7.4, 45 min, 400 V (20 V/cm)
Experimental: Filtered preparation was applied on a paper eluted with 0.1 M phosphate buffer (pH7.4) for 45 min. at a 400 V (20 V/cm).

[3] = Stability of 99mTc-complex by reversed phase HPLC; type: physicochemical; conditions: for approximately 4 hours; reaction mixture, RP-HPLC
Experimental: Radiochemical purity of ^99mTc-complex (25) was determined by HPLC using a C-18 reverse-phase column as a stationary phase and a water/ACN as a mobile phase, while maintaining a flow rate of 1 ml/min.
The complex is stable (>90%) for approximately 4 hours.

^99mTc-8-[3-({2-[4-(2-methoxy-phenyl)-piperazin-1-yl]-ethyl}-pyridin-2-yl-amino)-propyl]-[1,2,5,8]dithiadiazecan-6-one [Compound 25]
activity in the liver on image [1]: high activity
amount remained in the brain on image [1]: trace amount
charge observed in paper electrophoresis [2]: neutral charge
stability of the complex [3]: > 90%
